What was measured:
Assay type in all cases: in vivo
corn (Zea mays) = assay: Test A postemergence, visual injury rating; conditions: 0 is no effect, 100 is complete control
Method in brief: (§1)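 Scoring: eye-based comparison with untreated controls, 0 for no effect through 100 for complete control, at about day 10. Treatments: directed soil spray preemergence; foliar spray postemergence on 2–10 cm plants at the one- to two-leaf stage. Medium: loam soil with sand.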

[1] = test system: ragweed (common ragweed, Ambrosia elatior); assay: Test A postemergence, visual injury rating; conditions: 0 is no effect, 100 is complete control
Method in brief: as §1

kochia (Kochia scoparia) = assay: Test A postemergence, visual injury rating; conditions: 0 is no effect, 100 is complete control
Method in brief: as §1

[2] = test system: barnyardgrass (Echinochloa crus-galli); assay: Test A postemergence, visual injury rating; conditions: 0 is no effect, 100 is complete control
Method in brief: as §1

[3] = test system: giant foxtail (Setaria faberii); assay: Test A postemergence, visual injury rating; conditions: 0 is no effect, 100 is complete control
Method in brief: as §1

[4] = test system: blackgrass (Alopecurus myosuroides); assay: Test A postemergence, visual injury rating; conditions: 0 is no effect, 100 is complete control
Method in brief: as §1

[5] = test system: pigweed (Amaranthus retroflexus); assay: Test A postemergence, visual injury rating; conditions: 0 is no effect, 100 is complete control
Method in brief: as §1

[6] = test system: galium (catchweed bedstraw, Galium aparine); assay: Test A postemergence, visual injury rating; conditions: 0 is no effect, 100 is complete control
Method in brief: as §1

[7] = test system: wheat (Triticum aestivum); assay: Test A postemergence, visual injury rating; conditions: 0 is no effect, 100 is complete control
Method in brief: as §1

[8] = test system: Italian ryegrass (Lolium multiflorum); assay: Test A postemergence, visual injury rating; conditions: 0 is no effect, 100 is complete control
Method in brief: as §1

soybean (Glycine max) = assay: Test C postemergence, plant response rating; conditions: for Plant response rating, Soybean: scale 0 to 100; for Soybean plant response rating: scale 0 to 100 (0 no effect, 100 complete control)
Method in brief: (§2)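 Visual injury score, 0 = no effect, 100 = complete control, assigned against untreated controls after 13 to 15 d in the greenhouse. Compounds were applied in a surfactant-containing non-phytotoxic solvent mix, preemergence to seeded loam/sand or silt loam soil, or postemergence to 1- to 4-leaf plants (2 to 18 cm).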

[9] = test system: ragweed (common ragweed, Ambrosia elatior); assay: Test C postemergence, plant response rating; conditions: for Plant response rating, Ragweed: scale 0 to 100; for Ragweed plant response rating: scale 0 to 100 (0 no effect, 100 complete control)
Method in brief: as §2

[10] = test system: oat, wild (wild oat Avena fatua); assay: Test C postemergence, plant response rating; conditions: for Plant response rating, Oat, Wild: scale 0 to 100; for Oat, Wild plant response rating: scale 0 to 100 (0 no effect, 100 complete control)
Method in brief: as §2

[11] = test system: waterhemp (common waterhemp, Amaranthus rudis); assay: Test C postemergence, plant response rating; conditions: for Plant response rating, Waterhemp: scale 0 to 100; for Waterhemp plant response rating: scale 0 to 100 (0 no effect, 100 complete control)
Method in brief: as §2

[12] = test system: ryegrass, Italian (Italian ryegrass, Lolium multiflorum); assay: Test C postemergence, plant response rating; conditions: for Plant response rating, Ryegrass, Italian: scale 0 to 100; for Ryegrass, Italian plant response rating: scale 0 to 100 (0 no effect, 100 complete control)
Method in brief: as §2

[13] = test system: lambsquarters (Chenopodium album); assay: Test C postemergence, plant response rating; conditions: for Plant response rating, Lambsquarters: scale 0 to 100; for Lambsquarters plant response rating: scale 0 to 100 (0 no effect, 100 complete control)
Method in brief: as §2

[14] = test system: foxtail, giant (giant foxtail, Setaria faberii); assay: Test C postemergence, plant response rating; conditions: for Plant response rating, Foxtail, Giant: scale 0 to 100; for Foxtail, Giant plant response rating: scale 0 to 100 (0 no effect, 100 complete control)
Method in brief: as §2

[15] = test system: velvetleaf (Abutilon theophrasti); assay: Test C postemergence, plant response rating; conditions: for Plant response rating, Velvetleaf: scale 0 to 100; for Velvetleaf plant response rating: scale 0 to 100 (0 no effect, 100 complete control)
Method in brief: as §2

[16] = test system: chickweed (common chickweed, Stellaria media); assay: Test C postemergence, plant response rating; conditions: for Plant response rating, Chickweed: scale 0 to 100; for Chickweed plant response rating: scale 0 to 100 (0 no effect, 100 complete control)
Method in brief: as §2

N#CCCOC(=O)c1c(Br)cccc1Oc1ncc(Cl)cn1 [Compound 7]
Corn plant response rating (0 to 100 scale) (corn (Zea mays); 125 g ai/ha): 10 | Corn plant response rating (0 to 100 scale) (corn (Zea mays); 500 g ai/ha): 70 | Ragweed plant response rating (0 to 100 scale) ([1]; 125 g ai/ha): 40 | Ragweed plant response rating (0 to 100 scale) ([1]; 500 g ai/ha): 90 | Kochia plant response rating (0 to 100 scale) (kochia (Kochia scoparia); 125 g ai/ha): 100 | Kochia plant response rating (0 to 100 scale) (kochia (Kochia scoparia); 500 g ai/ha): 100 | Barnyardgrass plant response rating (0 to 100 scale) ([2]; 125 g ai/ha): 30 | Barnyardgrass plant response rating (0 to 100 scale) ([2]; 500 g ai/ha): 90 | Foxtail, Giant plant response rating (0 to 100 scale) ([3]; 125 g ai/ha): 50 | Foxtail, Giant plant response rating (0 to 100 scale) ([3]; 500 g ai/ha): 100 | Blackgrass plant response rating (0 to 100 scale) ([4]; 125 g ai/ha): 30 | Blackgrass plant response rating (0 to 100 scale) ([4]; 500 g ai/ha): 80 | Pigweed plant response rating (0 to 100 scale) ([5]; 125 g ai/ha): 100 | Pigweed plant response rating (0 to 100 scale) ([5]; 500 g ai/ha): 100 | Galium plant response rating (0 to 100 scale) ([6]; 125 g ai/ha): 100 | Galium plant response rating (0 to 100 scale) ([6]; 500 g ai/ha): 100 | Wheat plant response rating (0 to 100 scale) ([7]; 125 g ai/ha): 0 | Wheat plant response rating (0 to 100 scale) ([7]; 500 g ai/ha): 20 | Ryegrass, Italian plant response rating (0 to 100 scale) ([8]; 125 g ai/ha): 20 | Ryegrass, Italian plant response rating (0 to 100 scale) ([8]; 500 g ai/ha): 70 | Plant response rating, Soybean (soybean (Glycine max); 16 g ai/ha): 25 | Plant response rating, Soybean (soybean (Glycine max); 31 g ai/ha): 25 | Soybean plant response rating (soybean (Glycine max); 62 g ai/ha): 40 | Soybean plant response rating (soybean (Glycine max); 125 g ai/ha): 70 | Plant response rating, Ragweed ([9]; 16 g ai/ha): 10 | Plant response rating, Ragweed ([9]; 31 g ai/ha): 20 | Ragweed plant response rating ([9]; 62 g ai/ha): 20 | Ragweed plant response rating ([9]; 125 g ai/ha): 25 | Plant response rating, Oat, Wild ([10]; 16 g ai/ha): 0 | Plant response rating, Oat, Wild ([10]; 31 g ai/ha): 0 | Oat, Wild plant response rating ([10]; 62 g ai/ha): 5 | Oat, Wild plant response rating ([10]; 125 g ai/ha): 5 | Plant response rating, Waterhemp ([11]; 16 g ai/ha): 35 | Plant response rating, Waterhemp ([11]; 31 g ai/ha): 70 | Waterhemp plant response rating ([11]; 62 g ai/ha): 60 | Waterhemp plant response rating ([11]; 125 g ai/ha): 65 | Plant response rating, Ryegrass, Italian ([12]; 16 g ai/ha): 10 | Plant response rating, Ryegrass, Italian ([12]; 31 g ai/ha): 0 | Ryegrass, Italian plant response rating ([12]; 62 g ai/ha): 30 | Ryegrass, Italian plant response rating ([12]; 125 g ai/ha): 30 | Plant response rating, Lambsquarters ([13]; 16 g ai/ha): 5 | Plant response rating, Lambsquarters ([13]; 31 g ai/ha): 25 | Lambsquarters plant response rating ([13]; 62 g ai/ha): 30 | Lambsquarters plant response rating ([13]; 125 g ai/ha): 55 | Plant response rating, Foxtail, Giant ([14]; 16 g ai/ha): 5 | Plant response rating, Foxtail, Giant ([14]; 31 g ai/ha): 5 | Foxtail, Giant plant response rating ([14]; 62 g ai/ha): 10 | Foxtail, Giant plant response rating ([14]; 125 g ai/ha): 15 | Plant response rating, Velvetleaf ([15]; 16 g ai/ha): 5 | Plant response rating, Velvetleaf ([15]; 31 g ai/ha): 20 | Velvetleaf plant response rating ([15]; 62 g ai/ha): 35 | Velvetleaf plant response rating ([15]; 125 g ai/ha): 40 | Plant response rating, Chickweed ([16]; 16 g ai/ha): 5 | Plant response rating, Chickweed ([16]; 31 g ai/ha): 5 | Chickweed plant response rating ([16]; 62 g ai/ha): 30 | Chickweed plant response rating ([16]; 125 g ai/ha): 50

Source: patent US11053204B2, “Pyrimidinyloxy benzene derivatives as herbicides” (FMC Corporation, priority 2015, dated 2021)
